The values that follow come from ChEMBL document CHEMBL5120884, “Complex Flavanones from Cryptocarya metcalfiana and Structural Revision of Oboflavanone A” (J Nat Prod, 2022).

In this assay the test system is HCT-116. The assay can be described thus: Cytotoxicity against human HCT-116 cells incubated for 48 hrs by MTT assay. The class given is functional, cell-based. As to conditions: HCT-116, 48 h.

As a reminder, the IC50 is the midpoint of a concentration-inhibition curve. A higher IC50 goes with a need for much substance. `COC(=O)CCC[C@@H]1C[C@@H]2C[C@@](CCc3ccccc3)(Oc3cc4c(c(O)c32)C(=O)C[C@@H](c2ccccc2)O4)O1` yielded an IC50 greater than 10 µM. In the case of `O=C(O)CCC[C@@H]1C[C@@H]2C[C@@](/C=C/c3ccccc3)(Oc3cc4c(c(O)c32)C(=O)C[C@H](c2ccccc2)O4)O1` it was greater than 10 µM; in that of `O=C(O)CCC[C@@H]1C[C@@H]2C[C@@](/C=C/c3ccccc3)(Oc3cc4c(c(O)c32)C(=O)C[C@@H](c2ccccc2)O4)O1`, greater than 10 µM.

The compound `COC(=O)CCC[C@@H]1C[C@@H]2C[C@@](CCc3ccccc3)(Oc3cc4c(c(O)c32)C(=O)C[C@H](c2ccccc2)O4)O1` had an IC50 greater than 10 µM. For `O=C1C=CC[C@H](C[C@@H]2C[C@@H]3C[C@@](CCc4ccccc4)(Oc4cc5c(c(O)c43)C(=O)C[C@H](c3ccccc3)O5)O2)O1`, the IC50 was found to be 5.8 µM. In turn, `O=C1C=CC[C@H](C[C@@H]2C[C@@H]3C[C@@](CCc4ccccc4)(Oc4cc5c(c(O)c43)C(=O)C[C@@H](c3ccccc3)O5)O2)O1` gave an IC50 of 6.1 µM. Under `O=C1C=CC[C@H](C[C@@H]2C[C@@H]3C[C@@](/C=C/c4ccccc4)(Oc4cc5c(c(O)c43)C(=O)C[C@@H](c3ccccc3)O5)O2)O1` stands 7.2 µM; under `O=C1CCC[C@@H]2C[C@H](C[C@](O)(/C=C/c3ccccc3)O2)c2c(cc(O)c3c2O[C@@H](c2ccc(O)cc2)CC3=O)O1`, 4.5 µM; under `O=C1CCC[C@@H]2C[C@H](C[C@](O)(/C=C/c3ccccc3)O2)c2c(cc(O)c3c2O[C@H](c2ccc(O)cc2)CC3=O)O1`, 4.2 µM.
